Results as given in ChEMBL document CHEMBL3885861, “Open TG-GATES”.

Species: Rattus norvegicus
Experiment: Open TG-GATES - Regimen: Single
Format: toxicity, organism-based, Sprague-Dawley
Design: regimen Single, gender Male, age 6 weeks
Details: in vivo, po, route gavage; for gamma-GTP / ALP / ALT / AST / BUN / CRE / DBIL / GLC / K / LDH / Na / PL / RALB / TBIL / TC / TG / TP: tissue Plasma; for APTT / Bas / Eos / Fbg / Hb / Ht / Lym / MCHC / MCV / Mono / PT / Plat / RBC / Ret / WBC: tissue Blood; for KIDNEY_L / KIDNEY_R / KIDNEY_TOTAL: tissue Kidney; for LIVER: tissue Liver
[1] = 1200 mg/kg, 3 h, dose level Middle
[2] = 1200 mg/kg, 6 h, dose level Middle
[3] = 1200 mg/kg, 9 h, dose level Middle
[4] = 1200 mg/kg, 24 h, dose level Middle
[5] = 2000 mg/kg, 3 h, dose level High
[6] = 2000 mg/kg, 6 h, dose level High
[7] = 2000 mg/kg, 9 h, dose level High
[8] = 2000 mg/kg, 24 h, dose level High

Compound: O=C1NC(=O)C(c2ccccc2)(c2ccccc2)N1 [PHENYTOIN]
- gamma-GTP (600 mg/kg, 24 h, dose level Low): 1 IU/L
- TERMINAL_BW [1]: 211.8 g
- APTT [1]: 16.7 s
- Bas [1]: 0.2%
- Eos [1]: 1%
- Fbg [1]: 284.4 mg/dL
- Hb [1]: 13 g/dL
- Ht [1]: 38.7%
- Lym [1]: 75.2%
- MCHC [1]: 33.6%
- MCV [1]: 62.4 fL
- Mono [1]: 3.4%
- PT [1]: 13.8 s
- Plat [1]: 122.5 x10_4/uL
- RBC [1]: 621.4 x10_4/ul
- Ret [1]: 8.4%
- KIDNEY_L [1]: 0.9 g
- KIDNEY_R [1]: 0.9 g
- KIDNEY_TOTAL [1]: 1.8 g
- LIVER [1]: 9.3 g
- ALP [1]: 1502.4 IU/L
- ALT [1]: 35.2 IU/L
- AST [1]: 70.6 IU/L
- BUN [1]: 10.2 mg/dL
- CRE [1]: 0.2 mg/dL
- DBIL [1]: 0.016 mg/dL
- GLC [1]: 191.4 mg/dL
- K [1]: 4 meq/L
- LDH [1]: 98.2 IU/L
- Na [1]: 142.2 meq/L
- PL [1]: 146.8 mg/dL
- RALB [1]: 2.5 g/dL
- TBIL [1]: 0.052 mg/dL
- TC [1]: 75.6 mg/dL
- TG [1]: 74 mg/dL
- TP [1]: 5.4 g/dL
- gamma-GTP [1]: 1.2 IU/L
- TERMINAL_BW [2]: 207.5 g
- APTT [2]: 18 s
- Bas [2]: 0.4%
- Eos [2]: 1%
- Fbg [2]: 279.4 mg/dL
- Hb [2]: 13 g/dL
- Ht [2]: 38.7%
- Lym [2]: 73.2%
- MCHC [2]: 33.7%
- MCV [2]: 61.9 fL
- Mono [2]: 3%
- PT [2]: 14.5 s
- RBC [2]: 625.6 x10_4/ul
- Ret [2]: 8.2%
- WBC [2]: 94.4 x10_2/uL
- KIDNEY_L [2]: 0.9 g
- KIDNEY_R [2]: 0.9 g
- KIDNEY_TOTAL [2]: 1.9 g
- LIVER [2]: 8.7 g
- ALP [2]: 1256.2 IU/L
- ALT [2]: 35.8 IU/L
- AST [2]: 74.8 IU/L
- BUN [2]: 7.8 mg/dL
- CRE [2]: 0.2 mg/dL
- DBIL [2]: 0.016 mg/dL
- GLC [2]: 187 mg/dL
- K [2]: 3.7 meq/L
- LDH [2]: 77 IU/L
- Na [2]: 143.4 meq/L
- PL [2]: 141.4 mg/dL
- RALB [2]: 2.5 g/dL
- TBIL [2]: 0.058 mg/dL
- TC [2]: 76.8 mg/dL
- TG [2]: 30.6 mg/dL
- TP [2]: 5.4 g/dL
- gamma-GTP [2]: 1.2 IU/L
- TERMINAL_BW [3]: 206.4 g
- APTT [3]: 15.4 s
- Bas [3]: 0.4%
- Eos [3]: 1%
- Fbg [3]: 297 mg/dL
- Hb [3]: 13.1 g/dL
- Ht [3]: 38.9%
- Lym [3]: 78.6%
- MCHC [3]: 33.6%
- MCV [3]: 62.8 fL
- Mono [3]: 2%
- PT [3]: 14.1 s
- Plat [3]: 112.1 x10_4/uL
- RBC [3]: 619.2 x10_4/ul
- Ret [3]: 7.6%
- WBC [3]: 69.7 x10_2/uL
- KIDNEY_L [3]: 0.9 g
- KIDNEY_R [3]: 0.9 g
- KIDNEY_TOTAL [3]: 1.8 g
- LIVER [3]: 8 g
- ALP [3]: 1378 IU/L
- ALT [3]: 27.2 IU/L
- AST [3]: 71 IU/L
- BUN [3]: 7.4 mg/dL
- CRE [3]: 0.2 mg/dL
- DBIL [3]: 0.016 mg/dL
- GLC [3]: 194 mg/dL
- K [3]: 4.1 meq/L
- LDH [3]: 70.8 IU/L
- Na [3]: 142.2 meq/L
- PL [3]: 148.8 mg/dL
- RALB [3]: 2.6 g/dL
- TBIL [3]: 0.058 mg/dL
- TC [3]: 80 mg/dL
- TG [3]: 29.8 mg/dL
- TP [3]: 5.6 g/dL
- gamma-GTP [3]: 1 IU/L
- TERMINAL_BW [4]: 211.5 g
- APTT [4]: 16.7 s
- Bas [4]: 0.2%
- Eos [4]: 1.2%
- Fbg [4]: 278.6 mg/dL
- Hb [4]: 13.6 g/dL
- Ht [4]: 40%
- Lym [4]: 78.6%
- MCHC [4]: 33.9%
- MCV [4]: 61.9 fL
- Mono [4]: 2.4%
- PT [4]: 14.3 s
- Plat [4]: 118.4 x10_4/uL
- RBC [4]: 646.4 x10_4/ul
- Ret [4]: 7.1%
- WBC [4]: 94.4 x10_2/uL
- KIDNEY_L [4]: 1 g
- KIDNEY_R [4]: 1 g
- KIDNEY_TOTAL [4]: 1.9 g
- LIVER [4]: 8.6 g
- ALP [4]: 1604.8 IU/L
- ALT [4]: 29 IU/L
- AST [4]: 66.2 IU/L
- BUN [4]: 10 mg/dL
- CRE [4]: 0.2 mg/dL
- DBIL [4]: 0.02 mg/dL
- GLC [4]: 175.4 mg/dL
- K [4]: 4.2 meq/L
- LDH [4]: 102.4 IU/L
- Na [4]: 142.4 meq/L
- PL [4]: 126.6 mg/dL
- RALB [4]: 2.5 g/dL
- TBIL [4]: 0.042 mg/dL
- TC [4]: 66.8 mg/dL
- TG [4]: 52.4 mg/dL
- TP [4]: 5.4 g/dL
- gamma-GTP [4]: 1 IU/L
- TERMINAL_BW [5]: 211 g
- APTT [5]: 19.4 s
- Bas [5]: 0.2%
- Eos [5]: 1%
- Fbg [5]: 266.2 mg/dL
- Hb [5]: 13.1 g/dL
- Ht [5]: 38.8%
- Lym [5]: 77.6%
- MCHC [5]: 33.6%
- MCV [5]: 61.9 fL
- Mono [5]: 3.4%
- PT [5]: 14.1 s
- Plat [5]: 118.3 x10_4/uL
- RBC [5]: 626.4 x10_4/ul
- Ret [5]: 8.3%
- WBC [5]: 94.8 x10_2/uL
- KIDNEY_L [5]: 0.9 g
- KIDNEY_R [5]: 0.9 g
- KIDNEY_TOTAL [5]: 1.8 g
- LIVER [5]: 8.7 g
- ALP [5]: 1674 IU/L
- ALT [5]: 37.8 IU/L
- AST [5]: 76 IU/L
- BUN [5]: 10.2 mg/dL
- CRE [5]: 0.2 mg/dL
- DBIL [5]: 0.012 mg/dL
- GLC [5]: 185.6 mg/dL
- K [5]: 3.9 meq/L
- LDH [5]: 78.4 IU/L
- Na [5]: 141.4 meq/L
- PL [5]: 137.8 mg/dL
- RALB [5]: 2.5 g/dL
- TBIL [5]: 0.058 mg/dL
- TC [5]: 72 mg/dL
- TG [5]: 41.8 mg/dL
- TP [5]: 5.4 g/dL
- gamma-GTP [5]: 1.2 IU/L
- TERMINAL_BW [6]: 208.6 g
- APTT [6]: 16.1 s
- Bas [6]: 0.2%
- Eos [6]: 0.8%
- Fbg [6]: 289 mg/dL
- Hb [6]: 13.1 g/dL
- Ht [6]: 39.2%
- Lym [6]: 79.2%
- MCHC [6]: 33.4%
- MCV [6]: 61.4 fL
- Mono [6]: 2.4%
- PT [6]: 14.3 s
- RBC [6]: 637.2 x10_4/ul
- Ret [6]: 7.9%
- WBC [6]: 80.1 x10_2/uL
- KIDNEY_L [6]: 1 g
- KIDNEY_R [6]: 0.9 g
- KIDNEY_TOTAL [6]: 1.9 g
- LIVER [6]: 8.5 g
- ALP [6]: 1539.4 IU/L
- ALT [6]: 32 IU/L
- AST [6]: 71.8 IU/L
- BUN [6]: 8.6 mg/dL
- CRE [6]: 0.2 mg/dL
- DBIL [6]: 0.016 mg/dL
- GLC [6]: 186.4 mg/dL
- K [6]: 3.8 meq/L
- LDH [6]: 94.8 IU/L
- Na [6]: 142.2 meq/L
- PL [6]: 139.6 mg/dL
- RALB [6]: 2.5 g/dL
- TBIL [6]: 0.058 mg/dL
- TC [6]: 74.2 mg/dL
- TG [6]: 26 mg/dL
- TP [6]: 5.4 g/dL
- gamma-GTP [6]: 1.4 IU/L
- TERMINAL_BW [7]: 209.1 g
- APTT [7]: 15.5 s
- Bas [7]: 0.4%
- Eos [7]: 1%
- Fbg [7]: 295.6 mg/dL
- Hb [7]: 12.9 g/dL
- Ht [7]: 38.7%
- Lym [7]: 77.6%
- MCHC [7]: 33.4%
- MCV [7]: 61.4 fL
- Mono [7]: 1.6%
- PT [7]: 14 s
- Plat [7]: 122 x10_4/uL
- RBC [7]: 631.4 x10_4/ul
- Ret [7]: 8%
- WBC [7]: 93 x10_2/uL
- KIDNEY_L [7]: 0.9 g
- KIDNEY_R [7]: 0.9 g
- KIDNEY_TOTAL [7]: 1.8 g
- LIVER [7]: 7.6 g
- ALP [7]: 1420.6 IU/L
- ALT [7]: 31.6 IU/L
- AST [7]: 74.6 IU/L
- BUN [7]: 7.8 mg/dL
- CRE [7]: 0.2 mg/dL
- DBIL [7]: 0.016 mg/dL
- GLC [7]: 182.2 mg/dL
- K [7]: 3.9 meq/L
- LDH [7]: 83.2 IU/L
- Na [7]: 141.8 meq/L
- PL [7]: 124 mg/dL
- RALB [7]: 2.6 g/dL
- TBIL [7]: 0.062 mg/dL
- TC [7]: 66 mg/dL
- TG [7]: 23.2 mg/dL
- TP [7]: 5.5 g/dL
- gamma-GTP [7]: 1.8 IU/L
- TERMINAL_BW [8]: 203.9 g
- APTT [8]: 17 s
- Bas [8]: 0%
- Eos [8]: 1%
- Fbg [8]: 279.2 mg/dL
- Hb [8]: 13.8 g/dL
- Ht [8]: 40.9%
- Lym [8]: 75.4%
- MCHC [8]: 33.7%
- MCV [8]: 62.5 fL
- Mono [8]: 2.2%
- PT [8]: 14.3 s
- Plat [8]: 121.4 x10_4/uL
- RBC [8]: 654.4 x10_4/ul
- Ret [8]: 7.7%
- WBC [8]: 89.2 x10_2/uL
- KIDNEY_L [8]: 1 g
- KIDNEY_R [8]: 1 g
- KIDNEY_TOTAL [8]: 1.9 g
- LIVER [8]: 8 g
- ALP [8]: 1411 IU/L
- ALT [8]: 25.2 IU/L
- AST [8]: 66 IU/L
- BUN [8]: 9.8 mg/dL
- CRE [8]: 0.2 mg/dL
- DBIL [8]: 0.014 mg/dL
- GLC [8]: 174.8 mg/dL
- K [8]: 4.3 meq/L
- LDH [8]: 77 IU/L
- Na [8]: 141.8 meq/L
- PL [8]: 124.8 mg/dL
- RALB [8]: 2.6 g/dL
- TBIL [8]: 0.052 mg/dL
- TC [8]: 67.6 mg/dL
- TG [8]: 38 mg/dL
- TP [8]: 5.7 g/dL
- gamma-GTP [8]: 1.2 IU/L
